Measurements as given in BindingDB's records for doi:10.1016/j.chembiol.2017.02.001 (The University of Tokyo, 2017).
Where a SMILES comes first, the peptide text is derived from it.

Experiments:
Conditions in all cases: pH 7
Pancreatic alpha-amylase [1] = target: T1, Pancreatic alpha-amylase (Homo sapiens, UniProt P04746); test: Inhibition Kinetics Assay
T1 sequence (P04746 whole entry): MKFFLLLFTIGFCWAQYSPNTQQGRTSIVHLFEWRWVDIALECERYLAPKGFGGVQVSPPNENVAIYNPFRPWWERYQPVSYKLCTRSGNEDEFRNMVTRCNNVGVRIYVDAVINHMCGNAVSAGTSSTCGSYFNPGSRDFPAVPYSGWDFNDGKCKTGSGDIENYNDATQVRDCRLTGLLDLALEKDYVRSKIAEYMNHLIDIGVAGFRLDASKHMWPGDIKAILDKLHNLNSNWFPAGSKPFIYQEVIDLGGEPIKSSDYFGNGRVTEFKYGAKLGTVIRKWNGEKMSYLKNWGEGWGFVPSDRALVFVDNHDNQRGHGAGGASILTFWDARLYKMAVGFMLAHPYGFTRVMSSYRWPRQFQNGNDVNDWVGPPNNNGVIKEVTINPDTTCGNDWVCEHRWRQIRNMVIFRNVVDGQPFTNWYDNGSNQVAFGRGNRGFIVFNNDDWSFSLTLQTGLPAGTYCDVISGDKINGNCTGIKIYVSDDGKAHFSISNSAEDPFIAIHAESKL
Experimental: The release of 2-chloro-4-nitrophenol resulting from the HPA-catalyzed hydrolysis of 2-chloro-4-nitrophenyl a-maltotrioside (CNPG3) was monitored at 400 nm. Reactions were run at 30 °C in 50 mM NaPi and 100 mM NaCl (pH 7.0). Reactions were monitored over 5 min to measure the initial reaction rate.

Alpha-amylase 1A = target: T2, Alpha-amylase 1A (Homo sapiens, UniProt P0DUB6); test: Inhibition Assay (piHA-Dm)
T2 sequence (P0DUB6 whole entry): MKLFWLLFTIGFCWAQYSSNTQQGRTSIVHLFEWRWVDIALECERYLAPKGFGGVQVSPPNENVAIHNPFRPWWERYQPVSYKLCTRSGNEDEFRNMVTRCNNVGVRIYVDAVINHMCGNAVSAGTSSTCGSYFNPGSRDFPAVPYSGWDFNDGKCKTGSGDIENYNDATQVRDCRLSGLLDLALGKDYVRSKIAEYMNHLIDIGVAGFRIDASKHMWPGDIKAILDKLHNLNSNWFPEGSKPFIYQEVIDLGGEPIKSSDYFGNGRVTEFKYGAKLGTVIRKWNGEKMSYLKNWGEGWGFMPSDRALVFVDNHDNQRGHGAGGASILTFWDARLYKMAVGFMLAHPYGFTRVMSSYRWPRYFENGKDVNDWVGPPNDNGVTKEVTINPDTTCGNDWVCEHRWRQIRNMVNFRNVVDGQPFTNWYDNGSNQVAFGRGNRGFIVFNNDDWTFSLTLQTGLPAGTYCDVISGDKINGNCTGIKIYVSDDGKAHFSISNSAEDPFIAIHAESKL
Experimental: (§1) After kinetic analysis with HPA, piHA-Dm was tested as an inhibitor of ten additional enzymes. The conditions are listed as follows: Agrobacterium faecalis β-glucosidase (2.5 × 10^-4 mg/mL enzyme, 50 mM sodium phosphate pH 7, 4 mM PNP β-gal); Bos taurus β-galactosidase (6.9 × 10^-2 mg/mL enzyme, 50 mM sodium phosphate pH 7, 1 mM PNP β-gal); S. cerevisiae α-glucosidase (5 × 10^-3 mg/mL enzyme, 50 mM sodium phosphate pH 7, 1 mM α-glc); Human maltase-glucoamylase (8.1 × 10^-2 mg/mL enzyme, 50 mM sodium phosphate pH 7, 1 mM α-glc); Mouse maltase-glucoamylase (8.1 × 10^-2 mg/mL enzyme, 50 mM sodium phosphate pH 7, 1 mM α-glc); Butyrivibrio fibrisolvens α-amylase (1.7 × 10^-4 mg/mL enzyme, 50 mM sodium phosphate 100 mM NaCl pH 7, 1 mM CNPG3); Aspergillus oryzae α-amylase (1.9 × 10^-4 mg/mL enzyme, 50 mM sodium phosphate 100 mM NaCl pH 7, 1 mM CNPG3); Porcine pancreatic α-amylase (6.7 × 10^-3 mg/mL enzyme, 50 mM sodium phosphate 100 mM N

Pancreatic alpha-amylase [2] = target: T3, Pancreatic alpha-amylase (Sus scrofa, UniProt P00690); test: Inhibition Assay (piHA-Dm)
T3 sequence (P00690 whole entry): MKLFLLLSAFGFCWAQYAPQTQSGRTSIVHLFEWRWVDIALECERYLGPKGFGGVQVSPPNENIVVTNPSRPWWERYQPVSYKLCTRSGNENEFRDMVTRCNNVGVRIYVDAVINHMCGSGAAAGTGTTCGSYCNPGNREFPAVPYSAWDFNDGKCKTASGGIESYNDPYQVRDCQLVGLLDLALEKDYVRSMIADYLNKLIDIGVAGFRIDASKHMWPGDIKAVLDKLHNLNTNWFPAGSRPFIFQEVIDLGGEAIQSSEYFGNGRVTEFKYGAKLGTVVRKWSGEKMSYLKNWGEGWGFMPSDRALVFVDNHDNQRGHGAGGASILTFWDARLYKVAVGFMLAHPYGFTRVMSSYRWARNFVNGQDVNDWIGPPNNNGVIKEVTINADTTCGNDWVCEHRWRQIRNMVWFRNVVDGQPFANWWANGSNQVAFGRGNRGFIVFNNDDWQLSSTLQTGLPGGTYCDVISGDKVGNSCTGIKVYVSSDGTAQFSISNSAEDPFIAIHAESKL
Experimental: as §1

Maltase-glucoamylase = Maltase-glucoamylase (Homo sapiens, UniProt O43451); test: Inhibition Assay (piHA-Dm)
Maltase-glucoamylase, sequence (O43451 whole entry): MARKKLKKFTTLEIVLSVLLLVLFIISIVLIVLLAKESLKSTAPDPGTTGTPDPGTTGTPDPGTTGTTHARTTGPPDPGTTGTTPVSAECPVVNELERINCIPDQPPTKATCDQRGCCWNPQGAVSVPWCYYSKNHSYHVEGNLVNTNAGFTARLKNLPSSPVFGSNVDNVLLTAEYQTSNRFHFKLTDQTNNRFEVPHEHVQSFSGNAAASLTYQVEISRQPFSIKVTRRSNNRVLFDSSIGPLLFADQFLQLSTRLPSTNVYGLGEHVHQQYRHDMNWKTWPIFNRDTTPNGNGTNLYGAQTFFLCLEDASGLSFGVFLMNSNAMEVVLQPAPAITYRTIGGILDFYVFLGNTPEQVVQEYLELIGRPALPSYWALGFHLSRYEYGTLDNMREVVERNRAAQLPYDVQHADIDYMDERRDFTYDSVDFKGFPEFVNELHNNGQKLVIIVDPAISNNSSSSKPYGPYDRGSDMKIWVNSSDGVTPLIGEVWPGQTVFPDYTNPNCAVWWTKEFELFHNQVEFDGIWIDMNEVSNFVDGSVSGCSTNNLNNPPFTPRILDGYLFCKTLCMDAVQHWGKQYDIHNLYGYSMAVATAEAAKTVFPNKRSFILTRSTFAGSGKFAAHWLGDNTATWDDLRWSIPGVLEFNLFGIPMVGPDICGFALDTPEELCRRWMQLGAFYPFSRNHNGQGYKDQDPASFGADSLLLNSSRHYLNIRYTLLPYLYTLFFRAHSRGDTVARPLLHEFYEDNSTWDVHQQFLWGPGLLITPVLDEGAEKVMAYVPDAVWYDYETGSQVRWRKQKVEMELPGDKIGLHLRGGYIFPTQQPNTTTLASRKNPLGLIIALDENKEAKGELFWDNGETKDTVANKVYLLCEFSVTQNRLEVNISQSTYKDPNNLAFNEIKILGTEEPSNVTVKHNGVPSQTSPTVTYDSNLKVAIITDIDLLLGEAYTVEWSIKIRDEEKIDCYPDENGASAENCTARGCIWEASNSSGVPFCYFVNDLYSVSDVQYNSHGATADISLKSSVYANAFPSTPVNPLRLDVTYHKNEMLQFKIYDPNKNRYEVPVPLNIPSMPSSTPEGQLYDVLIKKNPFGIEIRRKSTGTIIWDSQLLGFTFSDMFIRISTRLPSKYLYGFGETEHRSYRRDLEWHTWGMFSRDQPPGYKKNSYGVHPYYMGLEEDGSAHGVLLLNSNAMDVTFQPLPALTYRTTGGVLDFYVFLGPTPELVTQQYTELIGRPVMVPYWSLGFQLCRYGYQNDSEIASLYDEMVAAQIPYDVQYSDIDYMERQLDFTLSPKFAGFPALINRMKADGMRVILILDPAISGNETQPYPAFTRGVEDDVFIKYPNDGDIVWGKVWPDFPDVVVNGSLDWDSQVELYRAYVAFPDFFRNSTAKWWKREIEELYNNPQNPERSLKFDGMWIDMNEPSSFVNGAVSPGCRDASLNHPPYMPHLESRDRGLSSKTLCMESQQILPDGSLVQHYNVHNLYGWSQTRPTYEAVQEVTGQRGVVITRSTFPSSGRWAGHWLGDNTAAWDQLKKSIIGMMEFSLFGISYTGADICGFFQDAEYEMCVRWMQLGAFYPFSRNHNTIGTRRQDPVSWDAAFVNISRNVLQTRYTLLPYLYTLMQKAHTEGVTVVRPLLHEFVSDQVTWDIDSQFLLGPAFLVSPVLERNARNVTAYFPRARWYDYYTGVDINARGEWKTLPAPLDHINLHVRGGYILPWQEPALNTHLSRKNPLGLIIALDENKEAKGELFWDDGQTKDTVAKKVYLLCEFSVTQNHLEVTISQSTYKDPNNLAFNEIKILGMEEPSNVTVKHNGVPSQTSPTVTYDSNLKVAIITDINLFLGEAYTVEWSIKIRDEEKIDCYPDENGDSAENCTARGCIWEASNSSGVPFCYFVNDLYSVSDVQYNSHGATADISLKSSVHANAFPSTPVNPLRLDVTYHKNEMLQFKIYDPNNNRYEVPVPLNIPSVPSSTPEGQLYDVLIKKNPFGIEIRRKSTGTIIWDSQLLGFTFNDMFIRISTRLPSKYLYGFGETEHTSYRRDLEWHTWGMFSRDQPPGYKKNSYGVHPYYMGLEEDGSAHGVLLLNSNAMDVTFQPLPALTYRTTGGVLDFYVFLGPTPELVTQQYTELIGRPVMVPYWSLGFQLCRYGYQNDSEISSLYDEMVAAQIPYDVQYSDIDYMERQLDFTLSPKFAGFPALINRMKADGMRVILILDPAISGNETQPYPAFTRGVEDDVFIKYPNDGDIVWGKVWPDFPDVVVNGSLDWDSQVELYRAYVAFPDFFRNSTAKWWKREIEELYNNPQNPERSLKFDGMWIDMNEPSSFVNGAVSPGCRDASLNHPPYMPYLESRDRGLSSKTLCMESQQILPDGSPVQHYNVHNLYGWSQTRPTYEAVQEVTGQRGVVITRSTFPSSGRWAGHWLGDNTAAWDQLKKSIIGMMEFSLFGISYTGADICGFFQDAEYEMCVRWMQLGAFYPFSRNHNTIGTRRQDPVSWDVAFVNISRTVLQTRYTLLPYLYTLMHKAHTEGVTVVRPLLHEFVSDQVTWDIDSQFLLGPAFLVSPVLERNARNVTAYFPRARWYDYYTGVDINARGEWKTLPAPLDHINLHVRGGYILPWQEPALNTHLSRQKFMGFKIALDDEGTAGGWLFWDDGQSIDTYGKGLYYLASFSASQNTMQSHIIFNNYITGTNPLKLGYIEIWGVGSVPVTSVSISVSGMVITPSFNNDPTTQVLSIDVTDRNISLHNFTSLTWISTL
Experimental: as §1

[3] = target: Soluble maltase-glucoamylase (Mus musculus, UniProt Q6XK23); test: Inhibition Assay (piHA-Dm)
Soluble maltase-glucoamylase, sequence (Q6XK23 whole entry): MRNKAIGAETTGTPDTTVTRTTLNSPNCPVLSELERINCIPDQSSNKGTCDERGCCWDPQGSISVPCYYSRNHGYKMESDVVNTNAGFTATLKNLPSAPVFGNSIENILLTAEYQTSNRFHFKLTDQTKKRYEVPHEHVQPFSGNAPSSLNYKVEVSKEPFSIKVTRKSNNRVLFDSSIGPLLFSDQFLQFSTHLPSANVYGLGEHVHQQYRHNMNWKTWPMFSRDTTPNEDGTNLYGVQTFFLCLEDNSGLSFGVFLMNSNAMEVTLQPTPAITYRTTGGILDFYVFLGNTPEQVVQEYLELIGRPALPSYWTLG
Experimental: as §1

Work on `CC[C@H](C)[C@H](NC(=O)[C@H](CCCNC(=N)N)NC(=O)[C@@H](NC(=O)[C@H](Cc1cnc[nH]1)NC(=O)[C@H](CCCNC(=N)N)NC(=O)[C@H](C)NC(=O)[C@H](Cc1c[nH]c2ccccc12)NC(=O)[C@H](CS)N1SCC(=O)N[C@@H](Cc2ccc(O)cc2)C(=O)N2CCC[C@H]2C(=O)N[C@@H](Cc2ccc(O)cc2)C(=O)N[C@@H](CO)C1=O)C(C)C)C(=O)N[C@@H](CCCNC(=N)N)C(=O)N[C@H](CCC(=O)O)C(=O)N[C@@H](CC(N)=O)C(N)=O` [piHA-D1] yielded a Ki (Pancreatic alpha-amylase [1]) of 1 nM.

`CC(C)[C@H](NC(=O)[C@H](Cc1c[nH]c2ccccc12)NC(=O)[C@H](CS)N1SCC(=O)N[C@@H](Cc2ccc(O)cc2)C(=O)N2CCC[C@H]2C(=O)N[C@@H](Cc2ccc(O)cc2)C(=O)N[C@@H](CO)C1=O)C(=O)N[C@@H](CCCNC(=N)N)C(=O)N[C@@H](Cc1cnc[nH]1)C(=O)N[C@@H](CO)C(=O)N[C@@H](CC(=O)O)C(=O)N1CCC[C@H]1C(=O)N[C@@H](Cc1cnc[nH]1)C(=O)N[C@@H](CCCCN)C(=O)N[C@@H](Cc1ccccc1)C(N)=O` [piHA-D3] gave a Ki (Pancreatic alpha-amylase [1]) of 2.7 nM.

For `CC(C)[C@H](NC(=O)[C@H](Cc1c[nH]c2ccccc12)NC(=O)[C@H](CS)N1SCC(=O)N[C@@H](Cc2ccc(O)cc2)C(=O)N2CCC[C@H]2C(=O)N[C@@H](Cc2ccc(O)cc2)C(=O)N[C@@H](CO)C1=O)C(=O)N[C@@H](CCCNC(=N)N)C(=O)N[C@@H](Cc1cnc[nH]1)C(N)=O` [piHA-Dm], the Ki (Pancreatic alpha-amylase [1]) was 7 nM and the IC50 (Alpha-amylase 1A) was 34 nM.

`CC(C)[C@H](NC(=O)[C@H](Cc1c[nH]c2ccccc12)NC(=O)[C@@H]1CSCC(=O)N[C@@H](Cc2ccc(O)cc2)C(=O)N2CCC[C@H]2C(=O)N[C@@H](Cc2ccc(O)cc2)C(=O)N[C@@H](CO)C(=O)N1)C(=O)N[C@@H](CCCNC(=N)N)C(=O)N[C@@H](Cc1cnc[nH]1)C(N)=O` [piHA-Dm] (HELM PEPTIDE1{[O=C(C[*:3])[*:2]].Y.P.Y.S.C.W.V.R.H.[am]}$PEPTIDE1,PEPTIDE1,1:R3-6:R3$$$V2.0) gave an IC50 (Pancreatic alpha-amylase [2]) of 8.5 nM, an IC50 (Maltase-glucoamylase) of 520 nM and an IC50 [3] of 990 nM.
